Laboratory results published in PubChem BioAssay AID504867 (The Scripps Research Institute Molecular Screening Center, 2011).

Molecular target: Sphingosine 1-phosphate receptor 5 (Homo sapiens) (UniProt Q9H228)
Experiment: activation of human S1P5 receptor – cell-based, fluorescence, set 2, counter-screen for S1P4 agonist project, late-stage follow-up (AID 504867)
Conditions: S1P5 agonist cell assay, fluorescence read-out

Sphingosine 1-phosphate receptor 5 (Homo sapiens), sequence (Q9H228 whole entry, looked up): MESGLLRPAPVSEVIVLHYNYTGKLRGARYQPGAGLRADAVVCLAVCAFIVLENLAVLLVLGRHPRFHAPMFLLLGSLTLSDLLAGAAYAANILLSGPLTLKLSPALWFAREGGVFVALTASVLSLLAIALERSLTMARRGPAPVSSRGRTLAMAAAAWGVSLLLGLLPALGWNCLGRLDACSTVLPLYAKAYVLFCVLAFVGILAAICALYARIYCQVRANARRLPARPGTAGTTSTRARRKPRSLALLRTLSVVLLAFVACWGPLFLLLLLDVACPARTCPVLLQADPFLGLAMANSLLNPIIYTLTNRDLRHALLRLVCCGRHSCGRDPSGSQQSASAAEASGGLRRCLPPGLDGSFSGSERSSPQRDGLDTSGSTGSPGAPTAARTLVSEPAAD

- EC50: 2100 nM
Structure (SMILES): COCCN=C1S/C(=C\c2cc(C)n(-c3ccc(F)cc3F)c2C)C(=O)N1C
